Target: T1, LipB52 (Pseudomonas fluorescens, UniProt Q6GX93)
T1 construct: lipase fused at its N-terminus to the C-terminus of the FLO flocculation domain (Saccharomyces cerevisiae ATCC 60715) as display anchor
T1 sequence (Q6GX93 1-617): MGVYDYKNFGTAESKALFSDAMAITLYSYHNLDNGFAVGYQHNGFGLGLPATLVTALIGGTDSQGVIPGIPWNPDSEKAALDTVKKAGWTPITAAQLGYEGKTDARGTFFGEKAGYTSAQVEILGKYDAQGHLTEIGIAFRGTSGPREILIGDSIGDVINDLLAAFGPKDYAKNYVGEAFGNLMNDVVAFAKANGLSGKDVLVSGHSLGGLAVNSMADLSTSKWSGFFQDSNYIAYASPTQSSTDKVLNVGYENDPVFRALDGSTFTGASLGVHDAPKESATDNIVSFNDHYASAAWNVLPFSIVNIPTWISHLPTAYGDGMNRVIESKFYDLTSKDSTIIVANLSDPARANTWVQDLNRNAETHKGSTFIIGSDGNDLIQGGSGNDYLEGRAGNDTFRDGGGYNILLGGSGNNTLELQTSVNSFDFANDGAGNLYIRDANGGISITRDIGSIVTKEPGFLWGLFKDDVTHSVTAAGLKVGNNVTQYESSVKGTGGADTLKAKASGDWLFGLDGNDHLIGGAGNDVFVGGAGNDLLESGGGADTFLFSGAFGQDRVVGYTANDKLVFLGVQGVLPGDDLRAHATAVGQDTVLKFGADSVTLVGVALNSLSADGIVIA
Assay: p-nitrophenol release by displayed whole cells
Type: cell-based
Conditions: yeast surface-displayed (whole-cell) enzyme

Compound | p-nitrophenol release by displayed whole cells (pH 8.0, 40 °C) | p-nitrophenol release by displayed whole cells (conditions not stated for this substrate)
CCCCCCCCCC(=O)Oc1ccc([N+](=O)[O-])cc1 [C10, p-nitrophenol-caprate] | the optimum substrate was p-nitrophenol-caprate (C10) | 
CCCCCCCCCCCC(=O)Oc1ccc([N+](=O)[O-])cc1 [C12, p-nitrophenol ester (C12)] |  | exhibited evident hydrolysis activity towards the p-nitrophenol ester

— paper PMC2267459, “Efficient display of active lipase LipB52 with a Pichia pastoris cell surface display system and comparison with the LipB52 displayed on Saccharomyces cerevisiae cell surface” (BMC Biotechnology, 2008)
